“Also recorded” adds a separate entry of the source.
Legend:
Format in all cases: cell-based, human
MOLM-13 (MLL-AF9) = assay: Combination proliferation study with Compound A2 (ATP/CellTiter-Glo, Chou-Talalay combination index)
Method in brief: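 Viability by CellTiter-Glo ATP luminescence; Fa relative to DMSO controls. Combination index by Chou-Talalay (CI<1 synergy, =1 additive, >1 antagonism).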

MV4-11 (MLL-AF4) = assay: as above; details: for Combination of Compound A2 and anti-cancer agent, MV4-11: 7 Day Cotreatment; for Combination with Compound A2, MV4-111 MLL-AF4: Table 2, Example 3; for Combination with Compound A2, MV4-11 (MLL-AF4): 7 Day Cotreatment Model, Table 4
Description: The acute myelogenous leukemia cell lines MV4-11 (MLL-AF4) and MOLM-13 (MLL-AF9) were obtained from American Type Culture Collection (ATCC; Rockville, Md.) and Deutsche Sammlung von Mikroorganismen and Zellkulturen (DSMZ; Braunschweig, Germany) respectively.
(§1) Studies were performed using MLL-rearranged cell lines in vitro to evaluate the anti-proliferative effect of a combination of two agents together on cell growth. Initial proliferation studies were performed to determine the IC50 of a given compound in each cell line. The cell counts were measured by ATP quantitation using the Promega Cell Titer Glo kit and luminescence values corresponded to the amount of ATP in a given well.
Compounds were evaluated for synergy in the co-treatment phase by testing the compounds in a concentration range which was bracketed around their IC50 values. The compounds were plated to a 96 well plate in a matrix format (FIG. 3) which includes increasing concentrations of each drug in the combination in a constant ratio, in addition to the effect of each compound alone in the study. Cells were seeded and grown in the log-linear phase for 3 or 7 days in the co-treatment phase. Minimum inhibition (DMSO alone) controls were used in each plate to calculate fraction affected (Fa) of a test well. DMSO concentration was kept at 0.1% v/v.
The drug combination analysis was performed utilizing the Chou-Talalay method Synergy was determined using the software package Calcusyn by Biosoft. The combination index (CI) is a quantitative term used to describe the level of synergy or antagonism in a given test system. A combination index less than one indicates synergy, and a CI greater than one indicates antagonism. Further, strong synergism is achieved when the CI value falls below 0.3.
(§2) Graphs representing values of combination index (CI) versus Fractional effect (Fa) known as Fa-CI plots were generated and synergy was evaluated. Drug synergy was statistically defined by CI values less than 1, antagonism by CI>1 and additive effect by CI equal to 1.
as §2
(§3) The HP-D300 digital dispenser (Tecan) was used to dispense compounds in a combinatorial matrix. […] Cell viability was measured via ATP content using CellTiter-Glo® (Promega).
(§4) Viability was determined using CellTiter-Glo® (Promega).
as §1, with “Proliferation studies” for “Studies”, “MOLM-13, MV4-11 and SKM-1” for “MLL-rearranged”, “cancer cell killing” for “anti-proliferative”, “IC50 values” for “IC50”, “correspond” for “corresponded”
These studies were performed to evaluate both the combinatorial effect of compounds on cell killing and the durability of the effect by washing out one of the agents.
Compounds evaluated for synergy in the co-treatment phase were tested in a range which was bracketed around the IC50's. The compounds were plated to a 96 well plate in a matrix format which includes increasing concentrations of each drug in the combination in a constant ratio, in addition to the effect of each compound alone in the study.

[1] = test system: SKM-1 (non-MLL-rearranged AML); assay: as above; details: for Combination with Compound A2, SKM-1 AML: Non-rearranged: Table 2, Example 3; for Effect of Compound A2 on the antiproliferative activity of the second agent: SKM-1, non-MLL-rearranged, Example 5
Description: (§5) Graphs representing values of combination index (CI) versus Fractional effect (Fa) known as Fa-CI plots were generated and synergy was evaluated.
as §5, §3, §4
MV4-11 cells were maintained in IMDM supplemented with 10% fetal bovine serum. MOLM-13 and SKM-1 cells were maintained in Roswell Park Memorial Institute medium (RPMI) supplemented with 10% fetal bovine serum. They were cultured in flasks or plates in a humidified 5% CO2 atmosphere.
as §1, with “Proliferation studies” for “Studies”, “MOLM-13, MV4-11 and SKM-1” for “MLL-rearranged”, “cancer cell killing” for “anti-proliferative”, “IC50 values” for “IC50”, “correspond” for “corresponded”
Compounds evaluated for synergy in the co-treatment phase were tested in a range which was bracketed around the IC50's. The compounds were plated to a 96 well plate in a matrix format which includes increasing concentrations of each drug in the combination in a constant ratio, in addition to the effect of each compound alone in the study. Cells were seeded and grown in the log-linear phase for 3 or 7 days in the cotreatment phase. Maximum and minimum inhibition (DMSO alone) controls were used in each plate to calculate fraction affected (Fa) of a test well. DMSO concentration was kept at 0.1% v/v. The drug combination analysis was performed utilizing the Chou-Talalay method. Synergy was determined using the software package Calcusyn by Biosoft. The combination index (CI) is the term used to describe the level of synergy or antagonism in a given test system. A combination index less than one indicates synergy, and a CI greater than one indicates antagonism.
The drug combination analysis was performed using the Chou-Talalay method. Graphs representing values of combination index (CI) versus Fractional effect (Fa) known as Fa-CI plots were generated and synergy was evaluated.

MOLM-13 cells [2] = assay: Apoptosis by Annexin V flow cytometry (Guava Nexin)
Description: (§6) A Guava EasyCyte HT™ flow cytometer was used to measure DNA content, Annexin V staining and cell surface expression of CD14 and CD11b markers on Days 10 and 14.
(§7) On Day 0 MOLM-13 cells are seeded at 3,000 cells/mL. On Day 7 and Day 10 MOLM-13 cells are counted and reseeded at 50,000 cells/mL. […] On Day 10 They were redosed again. On Day 14 the experiment was terminated. Cells were sampled for CD14 and CD11b analysis on Days 7, 10 and 14.
(§8) To evaluate the fraction of cells in each cell cycle, flow cytometric analysis was performed. FACS analysis for detection of cell death by apoptosis, and cell cycle was performed.
(§9) Cells were harvested on days 7, 10 and 14 and split to allow simultaneous analysis of cell cycle and Annexin V staining. Apoptosis was determined using the Guava Nexin Assay (Millipore 4500-0450) and cells were prepared according to the manufacturer's recommendations. Samples were analyzed using the Guava EasyCyte Plus System (Millipore). Cells for cell cycle analysis were pelleted by centrifugation at 200×g for 5 minutes at 4° C., washed twice with ice cold PBS then fixed with 70% ice cold ethanol. All samples were analyzed together at end of experiment. Following fixation cells were washed with PBS and stained with the Guava cell cycle reagent (Millipore 4500-0220) for 30 minutes. Samples were analyzed using the Guava EasyCyte Plus System (Millipore).

MOLM-13 cells [3] = assay: Cell cycle / sub-G1 flow cytometry; details: 156 nM Compound A2 plus 63 nM Ara-C, 10 and 14 days
Description: as §6, §7, §8, §9

EOL-1 (MLL-PTD) = assay: Combination proliferation study with Compound A2; details: Table 3, Example 3
Description: as §3, §4

KOPM-88 (MLL-PTD) = assay: Combination proliferation study with Compound A2; details: Table 3, Example 3
Description: as §3, §4

[4] = 7 Day Cotreatment Model, Table 4

Row | Structure (SMILES) | Combination with Compound A2, MOLM-13 (MLL-AF9) (MOLM-13 (MLL-AF9); [4]) | Combination with Compound A2, MOLM-13 (MLL-AF9) (MOLM-13 (MLL-AF9); Table 2, Example 3) | Combination of Compound A2 and anti-cancer agent, MV4-11 (MV4-11 (MLL-AF4)) | Combination with Compound A2, MV4-111 MLL-AF4 (MV4-11 (MLL-AF4)) | Effect of Compound A2 on the antiproliferative activity of the second agent [1] | Combination with Compound A2, EOL-1 (MLL-PTD) (EOL-1 (MLL-PTD)) | Combination with Compound A2, KOPM-88 (MLL-PTD) (KOPM-88 (MLL-PTD)) | Combination with Compound A2, MV4-11 (MLL-AF4) (MV4-11 (MLL-AF4)) | also measured
1 | COc1cc2c(cc1-c1c(C)noc1C)ncc1[nH]c(=O)n([C@H](C)c3ccccn3)c12 [IBET-151] | Synergy (Drug synergy was statistically defined by CI values less than 1) | Synergy (Drug synergy was statistically defined by CI values less than 1) | Synergy (A combination index less than one indicates synergy) | Synergy (Drug synergy was statistically defined by CI values less than 1) |  |  |  |  | Combination with Compound A2, SKM-1 AML: Non-rearranged [1]: IC50 not achieved
2 | Nc1ccn([C@@H]2O[C@H](CO)[C@@H](O)[C@@H]2O)c(=O)n1 [Ara-C, cytarabine] | Strong Synergy | Synergy (Drug synergy was statistically defined by CI values less than 1) | Synergy (A combination index less than one indicates synergy) | Strong Synergy | did not affect | Synergy (Drug synergy was statistically defined by CI values less than 1) | Synergy (Drug synergy was statistically defined by CI values less than 1) |  | Combination of Compound A2 and anti-cancer agent, MOLM-13 (MOLM-13 (MLL-AF9); 4 + 3 Model: Compound A2 pretreatment 4 days, then co-treatment 3 days): Synergy (A combination index less than one indicates synergy); Combination of Compound A2 and anti-cancer agent, MOLM-13 (MOLM-13 (MLL-AF9); 7 Day Cotreatment): Synergy (A combination index less than one indicates synergy); Combination with Compound A2, reverse order of addition (MOLM-13 (MLL-AF9); MOLM-13, Ara-C 3 days, then cotreatment with Compound A2 7 days): Synergy; Combination with Compound A2, reverse order of addition with Ara-C washout (MOLM-13 (MLL-AF9); MOLM-13, Ara-C 3 days, washed out, then Compound A2 7 days): Combination benefit is maintained; Combination with Compound A2 when Compound A2 is washed out prior to the addition of the second agent (MOLM-13 (MLL-AF9); MOLM-13, pre-treatment model with Compound A2 washout): durable combination benefit; also recorded: synergistic anti-proliferative activity was maintained; Combination with Compound A2, MOLM-13 (MLL-AF9) (MOLM-13 (MLL-AF9); Table 2, Example 3, listed as cytarabine): synergistically; Apoptosis, combination with Compound A2 (MOLM-13 cells [2]; 156 nM Compound A2 plus 63 nM Ara-C): enhance apoptosis; Induction of apoptosis, single agent (MOLM-13 cells [2]; 14 day treatment, 156 nM Compound A2 or 63 nM Ara-C): modest increase in apoptotic cell population; Combination with Compound A2 when Compound A2 is washed out prior to the addition of the second agent (MV4-11 (MLL-AF4); MV4-11, pre-treatment model with Compound A2 washout): synergistic anti-proliferative activity was maintained; Combination with Compound A2, MV4-111 MLL-AF4 (MV4-11 (MLL-AF4); listed as cytarabine): synergistically; Combination with Compound A2, SKM-1 AML: Non-rearranged ([1]; listed as cytarabine): did not act synergistically; sub-G1 cell population, combination with Compound A2 (MOLM-13 cells [3]): significant increase in the population of sub-G1 cells
3 | Nc1ncn([C@@H]2O[C@H](CO)[C@@H](O)[C@H]2O)c(=O)n1 [Azacitidine] | Strong Synergy | Synergy (Drug synergy was statistically defined by CI values less than 1) | Synergy (A combination index less than one indicates synergy) | Synergy (Drug synergy was statistically defined by CI values less than 1) |  | Synergy (Drug synergy was statistically defined by CI values less than 1) | Synergy (Drug synergy was statistically defined by CI values less than 1) | Synergy (Drug synergy was statistically defined by CI values less than 1) | Combination with Compound A2, MOLM-13 (MLL-AF9) (MOLM-13 (MLL-AF9); 7 Day Cotreatment Model, Table 4, listed as azacytidine): synergistically induce an anti-proliferative effect; also recorded: synergistic anti-proliferative activity; Combination with Compound A2, MV4-11 (MLL-AF4) (MV4-11 (MLL-AF4); listed as azacytidine): synergistically induce an anti-proliferative effect; also recorded: synergistic anti-proliferative activity; Effect of Compound A2 on the antiproliferative activity of the second agent ([1]; listed as Azacytidine): not potentiated; Effect of Compound A2 on the antiproliferative activity of the second agent ([1]; listed as azacytidine): no impact
4 | C[C@]12C=CC(=O)C=C1CC[C@@H]1[C@@H]2[C@@H](O)C[C@@]2(C)[C@H]1CC[C@]2(O)C(=O)CO [Prednisolone] | Antagonistic (antagonism by CI>1) |  |  |  | enhanced antiproliferative activity |  |  | Antagonistic (antagonism by CI>1) | Combination with Compound A2, MOLM-13 (MLL-AF9) (MOLM-13 (MLL-AF9); 7 Day Cotreatment Model, Table 4, listed as prednisolone): antagonism; Combination with Compound A2, MV4-11 (MLL-AF4) (MV4-11 (MLL-AF4); listed as prednisolone): antagonism

Reference: patent US20200030355A1, “COMBINATION THERAPY FOR TREATING CANCER” (Epizyme, Inc., priority 2014, published 2020)
